From DBAASP
Converted amounts (≈) assume the structure as drawn.

Assays:
Test in all cases: ≥ marks a high value that may be exact or a test limit, other limits are often not marked, values filed in µg/mL are converted to µM
Candida albicans = system: Candida albicans
Escherichia coli UB1005 = system: Escherichia coli UB1005
[1] = system: Pseudomonas aeruginosa H103
[2] = system: Salmonella enterica serovar Typhimurium
[3] = system: Staphylococcus aureus ATCC 25923
[4] = system: Staphylococcus epidermidis
[5] = system: Enterococcus faecalis ATCC 29212
[6] = system: Bacillus subtilis ATCC 23857
[7] = system: Escherichia coli ATCC 25922
[8] = system: Klebsiella pneumoniae ATCC 700603
[9] = system: Pseudomonas aeruginosa ATCC 9027
Bacillus subtilis 168 = system: Bacillus subtilis 168
Escherichia coli K-12 = system: Escherichia coli K-12
[10] = system: Pseudomonas aeruginosa PAO1
[11] = system: Staphylococcus aureus USA 300
[12] = system: Acinetobacter baumannii ATCC 19606
[13] = system: Pseudomonas aeruginosa ATCC 27853
[14] = system: Staphylococcus epidermidis ATCC 12228

Row | MIC (Candida albicans) | MIC (Escherichia coli UB1005) | MIC [1] | MIC [2] | MIC [3] | MIC [4] | MIC [5] | MIC [6] | MIC [7] | MIC [8] | SMILES | further results
1 | 4.22 µM (≈ 6 µg/mL) | 7.74 µM (≈ 11 µg/mL) | 16.2 µM (≈ 23 µg/mL) | 7.74 µM (≈ 11 µg/mL) | 16.2 µM (≈ 23 µg/mL) | 4.22 µM (≈ 6 µg/mL) |  |  |  |  | CC[C@H](C)[C@H](NC(=O)[C@@H](NC(=O)[C@H](C)NC(=O)[C@@H](NC(=O)[C@H](C)NC(=O)[C@@H](N)CCCN=C(N)N)C(C)C)C(C)C)C(=O)N[C@H](C(=O)N[C@@H](CCCN=C(N)N)C(=O)N[C@@H](CC(C)C)C(=O)N[C@@H](CCCN=C(N)N)C(=O)N[C@@H](CCCN=C(N)N)C(=O)N[C@H](C(N)=O)C(C)C)[C@@H](C)CC [RAVAVIIRLRRV] | 
2 | 94.5 µM (≈ 125 µg/mL) | 12.1 µM (≈ 16 µg/mL) | ≥ 94.5 µM | ≥ 47.6 µM | 47.6 µM (≈ 63 µg/mL) | 12.1 µM (≈ 16 µg/mL) | 23.4 µM (≈ 31 µg/mL) |  |  |  | CC[C@H](C)[C@H](NC(=O)[C@H](CCCN=C(N)N)NC(=O)[C@H](C)NC(=O)[C@H](CC(C)C)NC(=O)CN)C(=O)N[C@H](C(=O)N[C@H](C(=O)N[C@H](C(=O)N[C@@H](CCCN=C(N)N)C(=O)N[C@H](C(=O)N[C@@H](C)C(=O)N[C@@H](CCCN=C(N)N)C(N)=O)C(C)C)[C@@H](C)CC)C(C)C)C(C)C [GLARIVVIRVAR] | 
3 | 5.7 µM (≈ 11.9 µg/mL) | 1.4 µM (≈ 2.92 µg/mL) | 5.7 µM (≈ 11.9 µg/mL) | 2.9 µM (≈ 6.05 µg/mL) | 0.7 µM (≈ 1.46 µg/mL) | 0.7 µM (≈ 1.46 µg/mL) | 2.9 µM (≈ 6.05 µg/mL) |  |  |  | CC[C@H](C)[C@H](N)C(=O)N[C@@H](CC(C)C)C(=O)N[C@@H](CCCN=C(N)N)C(=O)N[C@@H](Cc1c[nH]c2ccccc12)C(=O)N[C@@H](CCCCN)C(=O)N[C@@H](Cc1c[nH]c2ccccc12)C(=O)N[C@@H](CCCN=C(N)N)C(=O)N[C@@H](Cc1c[nH]c2ccccc12)C(=O)N[C@@H](Cc1c[nH]c2ccccc12)C(=O)N[C@@H](CCCN=C(N)N)C(=O)N[C@@H](Cc1c[nH]c2ccccc12)C(=O)N[C@@H](CCCN=C(N)N)C(=O)N[C@@H](CCCN=C(N)N)C(=O)O [ILRWKWRWWRWRR] | 
4 |  |  |  |  | 8 µM (≈ 12.5 µg/mL) |  |  | 2 µM (≈ 3.13 µg/mL) | 4 µM (≈ 6.26 µg/mL) | 4 µM (≈ 6.26 µg/mL) | CC[C@H](C)[C@H](NC(=O)[C@H](CCCCN)NC(=O)[C@H](CCCCN)NC(=O)[C@H](C)NC(=O)[C@@H](NC(=O)[C@H](C)NC(=O)[C@H](CC(C)C)NC(=O)[C@H](CC(C)C)NC(=O)[C@H](CCCCN)NC(=O)[C@H](CCCCN)NC(=O)[C@H](CC(C)C)NC(=O)[C@H](CC(N)=O)NC(=O)[C@@H](N)CC(C)C)C(C)C)C(=O)N[C@@H](CC(C)C)C(N)=O [LNLKKLLAVAKKIL] | MIC [9]: 4 µM (≈ 6.26 µg/mL)
5 |  |  |  |  |  |  |  |  |  |  | CC[C@H](C)[C@H](N)C(=O)N[C@@H](Cc1c[nH]c2ccccc12)C(=O)N[C@@H](CC(C)C)C(=O)N[C@H](C(=O)N[C@@H](C)C(=O)N[C@@H](CC(C)C)C(=O)N[C@@H](CCCCN)C(=O)N[C@@H](Cc1ccccc1)C(=O)N[C@@H](CC(C)C)C(=O)NCC(=O)N[C@@H](CCCCN)C(=O)N[C@@H](Cc1cnc[nH]1)C(=O)N[C@@H](C)C(=O)N[C@@H](C)C(=O)N[C@@H](CCCCN)C(=O)N[C@@H](Cc1cnc[nH]1)C(=O)N[C@@H](CC(C)C)C(=O)N[C@@H](C)C(=O)N[C@@H](CCCCN)C(=O)N[C@@H](CCC(N)=O)C(=O)N[C@@H](CCC(N)=O)C(=O)N[C@@H](CC(C)C)C(=O)N[C@@H](CO)C(=O)N[C@@H](CCCCN)C(=O)N[C@@H](CC(C)C)C(=O)O)[C@@H](C)O [IWLTALKFLGKHAAKHLAKQQLSKL] | MIC (Bacillus subtilis 168): 6.25 µM (≈ 17.8 µg/mL); MIC (Escherichia coli K-12): 25 µM (≈ 71.1 µg/mL); MIC [10]: 25 µM (≈ 71.1 µg/mL); MIC [11]: 3.1 µM (≈ 8.82 µg/mL)
6 |  |  |  |  |  |  |  |  |  |  | CC(C)C[C@H](NC(=O)[C@H](CC(C)C)NC(=O)[C@H](CCCCN)NC(=O)[C@@H]1CCCN1C(=O)[C@H](CC(C)C)NC(=O)[C@H](CC(C)C)NC(=O)[C@H](CCCCN)NC(=O)[C@H](CC(C)C)NC(=O)[C@H](CC(C)C)NC(=O)[C@H](CO)NC(=O)CNC(=O)[C@H](Cc1ccccc1)NC(=O)[C@@H](N)Cc1ccccc1)C(N)=O [FFGSLLKLLPKLL] | MIC (Bacillus subtilis 168): 3.12 µM (≈ 4.64 µg/mL); MIC (Escherichia coli K-12): 12.5 µM (≈ 18.6 µg/mL); MIC [10]: 70.7 µM (≈ 105 µg/mL); MIC [11]: 1.1 µM (≈ 1.64 µg/mL)
7 |  |  |  |  | > 512 µM |  | > 512 µM | ≥ 512 µM | > 512 µM | > 512 µM | CC(C)C[C@H](NC(=O)[C@H](C)NC(=O)[C@@H](NC(=O)[C@H](CCCCN)NC(=O)[C@H](C)NC(=O)[C@H](CCCN=C(N)N)NC(=O)[C@H](CCCCN)NC(=O)[C@H](C)NC(=O)[C@H](C)NC(=O)CN)[C@@H](C)O)C(N)=O [GAAKRAKTAL] | MIC [12]: > 512 µM; MIC [13]: > 512 µM; MIC [14]: > 512 µM
8 |  |  |  |  | 128 µM (≈ 157 µg/mL) |  | 256 µM (≈ 314 µg/mL) | ≥ 128 µM | 64 µM (≈ 78.5 µg/mL) | 64 µM (≈ 78.5 µg/mL) | CC(C)C[C@H](NC(=O)[C@H](CC(C)C)NC(=O)[C@@H](NC(=O)[C@H](CCCCN)NC(=O)[C@H](Cc1c[nH]c2ccccc12)NC(=O)[C@H](CCCN=C(N)N)NC(=O)[C@H](CCCCN)NC(=O)[C@H](CC(C)C)NC(=O)[C@H](CC(C)C)NC(=O)CN)[C@@H](C)O)C(N)=O [GLLKRWKTLL] | MIC [12]: 256 µM (≈ 314 µg/mL); MIC [13]: 4 µM (≈ 4.91 µg/mL); MIC [14]: 16 µM (≈ 19.6 µg/mL)
9 |  |  |  |  | 64 µM (≈ 80.4 µg/mL) |  | 128 µM (≈ 161 µg/mL) | ≥ 64 µM | 64 µM (≈ 80.4 µg/mL) | 128 µM (≈ 161 µg/mL) | CC(C)C[C@H](NC(=O)[C@H](Cc1ccccc1)NC(=O)CN)C(=O)N[C@@H](CCCCN)C(=O)N[C@@H](CCCN=C(N)N)C(=O)N[C@@H](Cc1ccccc1)C(=O)N[C@@H](CCCCN)C(=O)N[C@H](C(=O)N[C@@H](CC(C)C)C(=O)N[C@@H](Cc1ccccc1)C(N)=O)[C@@H](C)O [GFLKRFKTLF] | MIC [12]: 128 µM (≈ 161 µg/mL); MIC [13]: 8 µM (≈ 10 µg/mL); MIC [14]: 8 µM (≈ 10 µg/mL)
10 | 95.7 µM (≈ 136 µg/mL) | ≥ 95.7 µM | ≥ 176 µM | ≥ 95.7 µM | 176 µM (≈ 250 µg/mL) | ≥ 95.7 µM |  |  |  |  | CC[C@H](C)[C@H](NC(=O)[C@H](CCCN=C(N)N)NC(=O)[C@H](CCCN=C(N)N)NC(=O)[C@H](CCCN=C(N)N)NC(=O)[C@H](CCCN=C(N)N)NC(=O)[C@@H](NC(=O)[C@@H](N)C(C)C)[C@@H](C)CC)C(=O)N[C@@H](CC(C)C)C(=O)N[C@@H](C)C(=O)N[C@@H](C)C(=O)N[C@H](C(=O)N[C@H](C(N)=O)C(C)C)C(C)C [VIRRRRILAAVV] | 
11 |  |  |  |  |  |  |  | 16 µM (≈ 19.3 µg/mL) | > 128 µM |  | CC[C@H](C)[C@H](NC(=O)CN)C(=O)N[C@H](C(=O)N[C@@H](C)C(=O)NCC(=O)N[C@H](C(=O)N[C@H](C(=O)N[C@@H](CCCCN)C(=O)N[C@H](C(=O)N[C@H](C(=O)N[C@@H](CCCCN)C(=O)N[C@@H](C)C(N)=O)[C@@H](C)CC)[C@@H](C)CC)[C@@H](C)CC)[C@@H](C)CC)[C@@H](C)CC [GIIAGIIKIIKA] | 
12 |  |  |  |  | 4 µM (≈ 5.8 µg/mL) |  |  | 16 µM (≈ 23.2 µg/mL) | 8 µM (≈ 11.6 µg/mL) | 32 µM (≈ 46.4 µg/mL) | CC[C@H](C)[C@H](NC(=O)[C@H](CCCCN)NC(=O)[C@H](C)NC(=O)[C@H](C)NC(=O)[C@@H](NC(=O)[C@H](C)NC(=O)[C@H](CC(C)C)NC(=O)[C@H](CC(C)C)NC(=O)[C@H](C)NC(=O)[C@H](CCCCN)NC(=O)[C@H](CC(C)C)NC(=O)[C@H](CC(N)=O)NC(=O)[C@@H](N)CC(C)C)C(C)C)C(=O)N[C@@H](CC(C)C)C(N)=O [LNLKALLAVAAKIL] | MIC [9]: 32 µM (≈ 46.4 µg/mL)
13 |  |  |  |  |  |  |  |  |  |  | CC(C)C[C@H](NC(=O)[C@H](CC(C)C)NC(=O)[C@H](CCCCN)NC(=O)[C@@H]1CCCN1C(=O)[C@H](CC(C)C)NC(=O)[C@H](CC(C)C)NC(=O)[C@H](CCCCN)NC(=O)[C@H](CC(C)C)NC(=O)[C@H](CC(C)C)NC(=O)[C@H](CO)NC(=O)CNC(=O)[C@H](CC(C)C)NC(=O)[C@@H](N)CC(C)C)C(N)=O [LLGSLLKLLPKLL] | MIC (Bacillus subtilis 168): 3.12 µM (≈ 4.43 µg/mL); MIC (Escherichia coli K-12): 12.5 µM (≈ 17.7 µg/mL); MIC [10]: > 100 µM; MIC [11]: 1.1 µM (≈ 1.57 µg/mL)
